Results taken from ChEMBL document CHEMBL3885881, “DrugMatrix”.

Organism: Rattus norvegicus
Assay: DrugMatrix - Regimen: Daily Repeat
Type: toxicity, organism-based, Sprague-Dawley
Set-up: regimen Daily Repeat, gender Male, age 6-8 weeks
Conditions: in vivo, po, 20 mg/kg, route oral GAVAGE, dose level Low, vehicle 100 % WATER; for ABSOLUTE BASOPHIL / ABSOLUTE EOSINOPHIL / ABSOLUTE LYMPHOCYTE / ABSOLUTE MONOCYTE / ABSOLUTE SEGMENTED NEUTROPHIL / BASOPHIL / EOSINOPHIL / ERYTHROCYTE COUNT / HEMATOCRIT / HEMOGLOBIN / LEUKOCYTE COUNT / LYMPHOCYTE / MEAN CORPUSCULAR HEMOGLOBIN / MEAN CORPUSCULAR HEMOGLOBIN CONCENTRATION / MEAN CORPUSCULAR VOLUME / MONOCYTE / NEUTROPHIL / NUCLEATED RED BLOOD CELLS / PLATELET COUNT: tissue Blood
[1] = 72 h, tissue Plasma, time 3 day
[2] = 120 h, tissue Plasma, time 5 day

COCCCOc1ccnc(C[S+]([O-])c2nc3ccccc3[nH]2)c1C (stereo not given) [RABEPRAZOLE]
ABSOLUTE BASOPHIL (72 h, time 3 day): 0 CELLS/uL
ABSOLUTE EOSINOPHIL (72 h, time 3 day): 317.67 CELLS/uL
ABSOLUTE LYMPHOCYTE (72 h, time 3 day): 11906.67 CELLS/uL
ABSOLUTE MONOCYTE (72 h, time 3 day): 267.33 CELLS/uL
ABSOLUTE SEGMENTED NEUTROPHIL (72 h, time 3 day): 875 CELLS/uL
BASOPHIL (72 h, time 3 day): 0%
EOSINOPHIL (72 h, time 3 day): 2.33%
ERYTHROCYTE COUNT (72 h, time 3 day): 5.67 x10E6/uL
HEMATOCRIT (72 h, time 3 day): 36.1%
HEMOGLOBIN (72 h, time 3 day): 13.63 G/DL
LEUKOCYTE COUNT (72 h, time 3 day): 13.37 x10E3/uL
LYMPHOCYTE (72 h, time 3 day): 89%
MEAN CORPUSCULAR HEMOGLOBIN (72 h, time 3 day): 24.07 pg
MEAN CORPUSCULAR HEMOGLOBIN CONCENTRATION (72 h, time 3 day): 37.8 G/DL
MEAN CORPUSCULAR VOLUME (72 h, time 3 day): 63.8 fL
MONOCYTE (72 h, time 3 day): 2%
NEUTROPHIL (72 h, time 3 day): 6.67%
NUCLEATED RED BLOOD CELLS (72 h, time 3 day): 0 /100WBC
PLATELET COUNT (72 h, time 3 day): 1283.67 x10E3/uL
ALANINE AMINOTRANSFERASE [1]: 42 u/L
ALBUMIN [1]: 4.3 G/DL
ALKALINE PHOSPHATASE [1]: 427.67 u/L
ASPARTATE AMINOTRANSFERASE [1]: 83.33 u/L
BLOOD UREA NITROGEN [1]: 14.33 mg/dL
CARBON DIOXIDE [1]: 27 mmol/L
CHLORIDE [1]: 105.67 MEQ/L
CHOLESTEROL [1]: 82.33 mg/dL
CREATINE PHOSPHOKINASE [1]: 491.33 u/L
CREATININE [1]: 0.16 mg/dL
GLUCOSE [1]: 161.67 mg/dL
LACTATE DEHYDROGENASE [1]: 92.33 u/L
LIPASE [1]: 9 u/L
PHOSPHORUS [1]: 14.1 mg/dL
POTASSIUM [1]: 6.68 MEQ/L
SODIUM [1]: 146.6 MEQ/L
TOTAL BILIRUBIN [1]: 0.2 mg/dL
TOTAL PROTEIN [1]: 5.87 G/DL
URIC ACID [1]: 2.2 mg/dL
ABSOLUTE BASOPHIL (120 h, time 5 day): 0 CELLS/uL
ABSOLUTE EOSINOPHIL (120 h, time 5 day): 38.67 CELLS/uL
ABSOLUTE LYMPHOCYTE (120 h, time 5 day): 10652 CELLS/uL
ABSOLUTE MONOCYTE (120 h, time 5 day): 120.67 CELLS/uL
ABSOLUTE SEGMENTED NEUTROPHIL (120 h, time 5 day): 788.67 CELLS/uL
BASOPHIL (120 h, time 5 day): 0%
EOSINOPHIL (120 h, time 5 day): 0.33%
ERYTHROCYTE COUNT (120 h, time 5 day): 5.6 x10E6/uL
HEMATOCRIT (120 h, time 5 day): 36.27%
HEMOGLOBIN (120 h, time 5 day): 13.6 G/DL
LEUKOCYTE COUNT (120 h, time 5 day): 11.6 x10E3/uL
LYMPHOCYTE (120 h, time 5 day): 91.67%
MEAN CORPUSCULAR HEMOGLOBIN (120 h, time 5 day): 24.27 pg
MEAN CORPUSCULAR HEMOGLOBIN CONCENTRATION (120 h, time 5 day): 37.5 G/DL
MEAN CORPUSCULAR VOLUME (120 h, time 5 day): 64.73 fL
MONOCYTE (120 h, time 5 day): 1%
NEUTROPHIL (120 h, time 5 day): 7%
NUCLEATED RED BLOOD CELLS (120 h, time 5 day): 0 /100WBC
PLATELET COUNT (120 h, time 5 day): 1417.67 x10E3/uL
ALANINE AMINOTRANSFERASE [2]: 49.33 u/L
ALBUMIN [2]: 4.17 G/DL
ALKALINE PHOSPHATASE [2]: 321 u/L
ASPARTATE AMINOTRANSFERASE [2]: 105 u/L
BLOOD UREA NITROGEN [2]: 19 mg/dL
CARBON DIOXIDE [2]: 23 mmol/L
CHLORIDE [2]: 110 MEQ/L
CHOLESTEROL [2]: 67 mg/dL
CREATINE PHOSPHOKINASE [2]: 1368.67 u/L
CREATININE [2]: 0.21 mg/dL
GLUCOSE [2]: 203 mg/dL
LACTATE DEHYDROGENASE [2]: 225 u/L
LIPASE [2]: 8.67 u/L
PHOSPHORUS [2]: 13.93 mg/dL
POTASSIUM [2]: 6.05 MEQ/L
SODIUM [2]: 148.17 MEQ/L
TOTAL BILIRUBIN [2]: 0.2 mg/dL
URIC ACID [2]: 1.77 mg/dL
